Tests used:
[1] = Cmax in cynomolgus monkey at 4 mg/kg; type: ADME, organism-based, Macaca fascicularis; set-up: dose 4 mg/kg; conditions: in vivo
[2] = Plasma clearance in squirrel monkey at 5 mg/kg; type: ADME, organism-based; set-up: dose 5 mg/kg; conditions: saimiri
[3] = Terminal half life in cynomolgus monkey at 10 mg/kg; type: ADME, organism-based, Macaca fascicularis; set-up: dose 10 mg/kg; conditions: in vivo, read-out: beta t1/2 (converted)
[4] = Cmax in Beagle dog at 10 mg/kg; type: ADME, organism-based, Canis lupus familiaris; set-up: dose 10 mg/kg; conditions: in vivo
[5] = Bioavailability in Beagle dog; type: ADME, organism-based, Canis lupus familiaris; conditions: in vivo
[6] = Terminal half life in squirrel monkey at 10 mg/kg; type: ADME, organism-based; set-up: dose 10 mg/kg; conditions: saimiri, in vivo, read-out: beta t1/2 (converted)
[7] = Volume of distribution at steady state in cynomolgus monkey at 2 mg/kg; type: ADME, organism-based, Macaca fascicularis; set-up: dose 2 mg/kg; conditions: in vivo, read-out: Vdss
[8] = Bioavailability in rat; type: ADME, organism-based; conditions: in vivo
[9] = Plasma clearance in cynomolgus monkey at 2 mg/kg; type: ADME, organism-based, Macaca fascicularis; set-up: dose 2 mg/kg
[10] = Cmax in squirrel monkey at 10 mg/kg; type: ADME, organism-based; set-up: dose 10 mg/kg; conditions: saimiri, in vivo
[11] = Plasma clearance in rat at 10 mg/kg; type: ADME, organism-based; set-up: dose 10 mg/kg
[12] = Terminal half life in Beagle dog at 10 mg/kg; type: ADME, organism-based, Canis lupus familiaris; set-up: dose 10 mg/kg; conditions: in vivo, read-out: beta t1/2 (converted)
[13] = Volume of distribution at steady state in squirrel monkey at 5 mg/kg; type: ADME, organism-based; set-up: dose 5 mg/kg; conditions: saimiri, in vivo, read-out: Vdss
[14] = Bioavailability in squirrel monkey; type: ADME, organism-based; conditions: saimiri, in vivo
[15] = Bioavailability in cynomolgus monkey; type: ADME, organism-based, Macaca fascicularis; conditions: in vivo
[16] = Volume of distribution at steady state in rat at 10 mg/kg; type: ADME, organism-based; set-up: dose 10 mg/kg; conditions: in vivo, read-out: Vdss
[17] = Cmax in rat at 30 mg/kg; type: ADME, organism-based; set-up: dose 30 mg/kg; conditions: in vivo
[18] = Terminal half life in rat at 10 mg/kg; type: ADME, organism-based; set-up: dose 10 mg/kg; conditions: in vivo, read-out: beta t1/2 (converted)
[19] = Plasma clearance in Beagle dog at 2 mg/kg; type: ADME, organism-based, Canis lupus familiaris; set-up: dose 2 mg/kg
[20] = Volume of distribution at steady state in Beagle dog at 2 mg/kg; type: ADME, organism-based, Canis lupus familiaris; set-up: dose 2 mg/kg; conditions: in vivo, read-out: Vdss

- Cmax [1]: 0.06 µM
- clearance [2]: 7.3 mL/min/kg
- half-life [3]: 13.8 h
- Cmax [4]: 9 µM
- bioavailability [5]: 23%
- half-life [6]: 1.4 h
- Vd [7]: 1.2 L/kg
- bioavailability [8]: 53%
- clearance [9]: 21 mL/min/kg
- Cmax [10]: 8.5 µM
- clearance [11]: 1.6 mL/min/kg
- half-life [12]: 8.6 h
- Vd [13]: 0.78 L/kg
- bioavailability [14]: 43%
- bioavailability [15]: 4%
- Vd [16]: 0.47 L/kg
- Cmax [17]: 28 µM
- half-life [18]: 8.3 h
- clearance [19]: 4 mL/min/kg
- Vd [20]: 1.2 L/kg
Compound: CC(C)c1nccc2c1c(Sc1ccc(Cl)c(Cl)c1)c1n2CC[C@@H]1CC(=O)O
